System: Ehrlich Ascites Tumor
Assay: Standard test with Ehrlich ascites tumor in ICR mice (antitumor activity)
Format: in vivo, ICR-Mäusen
Conditions: Dose 6 mg Pt-Komplex pro kg, intraperitoneal on day 1 and day 6; Cure = animals that survived longer than 60 days; two groups (20 mice) for the control
Description: Zur Ermittlung der antikarzinogenen Aktivität der erfindungsgemäßen Platinkomplexverbindungen wurde der Standardtest mit dem Ehrlich Ascites Tumor an ICR-Mäusen angewendet. […] Die Tumorzellen sowie die Platinkomplexverbindungen wurden am Tag Null bzw. am 1. und 6. Tag intraperitonal injiziert. Die Resultate wurden in der nachstehenden Tabelle II zusammengestellt.
Der Terminus "Cure" wurde vom National Cancer Institute, USA, übernommen und bedeutet, wieviele Tiere länger als 60 Tage überlebt haben. Aus den Resultaten geht deutlich hervor, daß die erfindungsgemäßen Platinkomplexverbindungen gegenüber den bekannten Antitumormitteln der Vergleichsbeispiele 1 und 7 eine mindestens gleich gute, meist sogar deutlich bessere Antitumorwirkung zeigen.

In the case of `N.N.[Cl][Pt][Cl]` [Positive Kontrolle, cis-Dichloro-diamino-platin(II)], the “Anzahl der "Cures" pro Tiergruppe” value is reported as 4.
